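1) Cells in 96-well plates. 2) Compound, 48 h, 5 concentrations. 3) Linear interpolation between surrounding doses. 4) Unreached endpoint = highest concentration. GI50 = concentration required for 50% inhibition of growth.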 Active and inactive are the calls of the source. Cut-off read from the data, not from the text of the source: active = GI50 up to about 1.1 µM and inactive = higher.

Assay in all cases: NCI-60 cell line screen, 48 h
Experiment [1] concerns HCT-15.
Experiment [2] relates to NCI-H460.
For experiment [3], the system named is RXF 393.
Experiment [4] deals with NCI-H226.
Experiment [5] concerns SK-MEL-5.
The subject of experiment [6] is HT-29.
Experiment [7] concerns RPMI-8226.
The test system of experiment [8] is EKVX.
The subject of experiment [9] is DU-145.
Experiment [10] concerns M14.
For experiment [11], the system named is SW-620.
The subject of experiment [12] is SK-OV-3.
In experiment [13] the test system is OVCAR-5.
Experiment [14] has as its system CAKI-1.
Experiment [15] deals with HOP-92.
Experiment [16] relates to SF-268.
Experiment [17] deals with SF-295.
Experiment [18] concerns Malme-3M.
Experiment [19] has as its system SNB-75.
Experiment [20] deals with MDA-MB-435.

On to `O=c1c2ccccc2n2nnc3ccc(NCCCNCCNCCCNc4ccc5nnn6c7ccccc7c(=O)c4c56)c1c32`, for which the GI50 in [1] was 3.33 µM; in [2], 0.505 µM (active); in experiment [3], 1.37 µM (inactive); in experiment [4], 0.005 µM (active); in experiment [5] it was > 50 µM (inactive); in experiment [6], 0.121 µM (active). Moreover, the GI50 is 0.716 µM (active) in [7]; 7.03 µM (inactive) in experiment [8]; 5.77 µM (inactive) in experiment [9]; > 12.6 µM (inactive) in experiment [10]; 0.251 µM (active) in experiment [11]; > 20.3 µM (inactive) in experiment [12]. In addition, the GI50 in experiment [13] is 6.44 µM (inactive); in [14] it was 3.86 µM (inactive); in [15] it was > 10.6 µM (inactive); in [16], 1.79 µM (inactive); in experiment [17], 5.89 µM (inactive); in experiment [18] it was 5.83 µM (inactive). In addition, the GI50 in [19] is 7.89 µM (inactive).

As to `CCCCn1c(CSc2ccc(Cl)cc2)c(C(=O)OCC)c2cc(OC)c(Br)cc21`, the GI50 is more than 100 µM in experiment [1]; > 100 µM (inactive) in experiment [2]; > 100 µM (inactive) in experiment [20]; > 100 µM (inactive) in [4]; > 100 µM (inactive) in experiment [5]; > 100 µM (inactive) in [7]. For the same compound, the GI50 in [8], in experiment [9], in experiment [10], in experiment [11], in [12] and in experiment [13] was > 100 µM (inactive) in each case. Further, the GI50 in [14] was 31.5 µM (inactive); in [16] it was > 100 µM (inactive); in experiment [17] it was > 100 µM (inactive); in experiment [18], > 100 µM (inactive); in experiment [19], > 100 µM (inactive).

Regarding `Cc1ccc(S(=O)(=O)NC(=O)NC(Cc2ccc(O)cc2)C(=O)O)cc1` (configuration not stated), the GI50 is more than 100 µM in experiment [1]; > 100 µM (inactive) in experiment [2]; > 100 µM (inactive) in [3]; > 100 µM (inactive) in experiment [5]; > 100 µM (inactive) in [6]; > 100 µM (inactive) in experiment [7]. The GI50 in experiment [9], in experiment [10], in experiment [11], in experiment [12], in experiment [13] and in experiment [15] was > 100 µM (inactive) in each case. Further, the GI50 in experiment [16], in experiment [17], in experiment [18] and in experiment [19] was > 100 µM (inactive) each time.

In the case of `CC(=O)c1ccc(N2CCN(C3=C(Cl)C(=O)c4c(O)ccc(O)c4C3=O)CC2)cc1`, the GI50 in experiment [1] is 8.79 µM; in [2] it was 16.8 µM (inactive); in experiment [3] it was 3.02 µM (inactive); in experiment [5], 5.73 µM (inactive); in experiment [6], 2.12 µM (inactive); in experiment [7], 2.86 µM (inactive). Moreover, the GI50 was 18.7 µM (inactive) in [8]; 17.1 µM (inactive) in experiment [9]; 2.21 µM (inactive) in experiment [10]; 3.02 µM (inactive) in [11]; 18.9 µM (inactive) in experiment [13]; 4.89 µM (inactive) in [14]. Also, the GI50 is 2.11 µM (inactive) in experiment [15]; 3.1 µM (inactive) in experiment [16]; 18.8 µM (inactive) in [17]; 11.4 µM (inactive) in [18]; 12.7 µM (inactive) in experiment [19].

For `Cn1c(=O)cc(NCc2ccc(Cl)cc2)[nH]c1=O`, the GI50 is more than 100 µM in experiment [1]; > 100 µM (inactive) in experiment [2]; 68.7 µM (inactive) in experiment [3]; > 100 µM (inactive) in [20]; > 100 µM (inactive) in experiment [4]; > 100 µM (inactive) in [5]. Further, the GI50 in [6], in experiment [7], in experiment [8], in [10], in [11] and in experiment [12] was > 100 µM (inactive) in each case. The GI50 in experiment [13] is > 100 µM (inactive); in experiment [14], > 100 µM (inactive); in experiment [15], 19.3 µM (inactive); in [16], 18.8 µM (inactive); in experiment [17], 30.3 µM (inactive); in [18] it was 73.3 µM (inactive). The GI50 in [19] is 24 µM (inactive).

For `S=C(S)NCC1CCC(CNC(=S)S)CC1` (configuration not stated), the GI50 in [1] is 23.6 µM; in [2], 70.5 µM (inactive); in experiment [3] it was 20 µM (inactive); in [20], 23.3 µM (inactive); in [5], 87.9 µM (inactive); in experiment [6] it was 17.7 µM (inactive). The GI50 was 9.18 µM (inactive) in experiment [7]; 62.1 µM (inactive) in experiment [8]; 26 µM (inactive) in [9]; 82.8 µM (inactive) in [10]; 47.5 µM (inactive) in experiment [11]; > 100 µM (inactive) in experiment [12]. The GI50 in experiment [13] was > 100 µM (inactive); in experiment [14], 16.9 µM (inactive); in [16], 39.2 µM (inactive); in experiment [17], > 100 µM (inactive); in experiment [18] it was 22.8 µM (inactive); in experiment [19] it was 34.9 µM (inactive).

As to `COC(=O)CC(NC(=O)OCc1ccccc1)C(C(C)=O)C(=O)OCc1ccccc1` (configuration not stated), the GI50 in experiment [1] is more than 31.6 µM; in [2], > 31.6 µM (inactive); in [3], > 10 µM (inactive); in experiment [4], > 10 µM (inactive); in [5], > 31.6 µM (inactive); in experiment [6], > 10 µM (inactive). Further, the GI50 in experiment [7] is > 31.6 µM (inactive); in [8], > 31.6 µM (inactive); in experiment [10], > 31.6 µM (inactive); in experiment [11], > 31.6 µM (inactive); in [12], > 31.6 µM (inactive); in [13] it was > 100 µM (inactive). For the same compound, the GI50 in experiment [14] was > 31.6 µM (inactive); in experiment [15], > 31.6 µM (inactive); in experiment [16] it was > 31.6 µM (inactive); in [17], > 100 µM (inactive); in experiment [18], > 10 µM (inactive); in experiment [19] it was 20.2 µM (inactive).

As to `Cn1nc(N)nc1N=S(C)(C)=N`, the GI50 in experiment [1] is more than 100 µM; in experiment [2] it was > 100 µM (inactive); in [3], > 100 µM (inactive); in [4], 72.4 µM (inactive); in experiment [5], > 100 µM (inactive); in experiment [6] it was > 100 µM (inactive). In addition, the GI50 in experiment [7], in experiment [8], in experiment [10], in [11], in experiment [12] and in [13] was > 100 µM (inactive) each time. Also, the GI50 in experiment [14], in [15], in experiment [16], in [17], in experiment [18] and in experiment [19] was > 100 µM (inactive) each time.

(Values after ChEMBL document CHEMBL1201862, “PubChem BioAssay data set” (2004).)
